# According to patent US4232148A, “6-Deoxyneamines” (The Upjohn Company, priority 1979, dated 1980):
# System: S. lutea UC 130
# Test: standard disc plate assay, zone of inhibition
# Format: cell-based
# Conditions: Micrococcus luteus, UC130, read-out: Zones of Inhibition
# Source text: The compounds of formulas (V, VII, IX, XI, XIV, XVI, and XIX) are active as antibacterials and can be used in various environments to erradicate or control susceptible microorganisms. Tables I and II set forth the in vitro antibacterial test results for representative compounds of the present invention. The results were obtained with a standard disc plate assay using 12.5 mm paper discs.
smiles,measurement,value
NC[C@H]1O[C@H](O[C@H]2[C@H](O)[C@@H](O)[C@H](N)C[C@@H]2N)[C@H](N)[C@@H](O)[C@@H]1O [Neamine],zone of inhibition at 1000 µg/mL,17 mm
